Key:
Assay type in all cases: protein assay
[1] = biological target: T1, S-adenosylmethionine synthetase (MAT 1 and MAT 2) (Rattus norvegicus, UniProt P13444+P18298); test: Inhibition constant of compound with Novikoff ascitic hepatoma (M-T) form of rat methionine adenosyltransferase when ATP was used as variable substrate;Competitive type of inhibition
[2] = biological target: T1, S-adenosylmethionine synthetase (MAT 1 and MAT 2); test: Inhibition constant of compound with kidney (M-2) form of rat methionine adenosyltransferase when ATP was used as variable substrate;Competitive type of inhibition
[3] = biological target: T1, S-adenosylmethionine synthetase (MAT 1 and MAT 2); test: Inhibition constant of compound with kidney (M-2) form of rat methionine adenosyltransferase when methionine was used as variable substrate;Simple non-competitive type of inhibition
[4] = biological target: T1, S-adenosylmethionine synthetase (MAT 1 and MAT 2); test: Inhibition constant of compound with Novikoff ascitic hepatoma (M-T) form of rat methionine adenosyltransferase when methionine was used as variable substrate;Simple non-competitive type of inhibition

Structure (SMILES) | Ki [1] [µM] | Ki [2] [µM] | Ki [3] [µM] | Ki [4] [µM]
Nc1ncnc2c1ncn2[C@@H]1O[C@H]([C@@H](CNP(=O)(O)OP(=O)(O)OP(=O)(O)O)SCCC(N)C(=O)O)[C@@H](O)[C@H]1O (some centres undefined) | 20 |  |  | 
Nc1ncnc2c1ncn2C1O[C@H](CCNP(=O)(O)OP(=O)(O)OP(=O)(O)O)[C@@H](O)[C@H]1O (some centres undefined) |  | 14 | 580 | 
Nc1ncnc2c1ncn2C1O[C@H]([C@H](CNP(=O)(O)OP(=O)(O)OP(=O)(O)O)SCCC(N)C(=O)O)[C@@H](O)[C@H]1O (some centres undefined) | 0.27 | 0.36 | 3 | 2.3
Nc1ncnc2c1ncn2[C@@H]1O[C@H](C(CP(=O)(O)OP(=O)(O)OP(=O)(O)O)SCCC(N)C(=O)O)[C@@H](O)[C@H]1O (single isomer, unassigned; isomer A) |  | 39 |  | 
Nc1ncnc2c1ncn2[C@@H]1O[C@H](C(CP(=O)(O)OP(=O)(O)OP(=O)(O)O)SCCC(N)C(=O)O)[C@@H](O)[C@H]1O (single isomer, unassigned; isomer B) |  | 180 |  | 

Source: ChEMBL document CHEMBL1123742, “Isozyme-specific enzyme inhibitors. 13. S-[5'(R)-[(N-triphosphoamino)methyl]adenosyl]-L-homocysteine, a potent inhibitor of rat methionine adenosyltransferases” (J Med Chem, 1987)
